Data as given in EP4206196A1, “PYRIMIDINE SUBSTITUTED DERIVATIVES AS TYK2 INHIBITORS” (Almirall S.A., priority 2021, dated 2023).

How the values were obtained:
[1] = biological target: T1, TYK2 (JH2domain-pseudokinase) (Homo sapiens, UniProt P29597); assay: TYK2 JH2 domain binding assay (KINOMEscan)
T1 construct: TYK2 (JH2domain-pseudokinase)-tagged T7 phage strains were prepared in an E. coli host derived from the BL21 strain; made in house; host or cells: E. coli BL21-derived host (T7 phage) or HEK-293 cells
T1 sequence (P29597 589-875 limits assumed): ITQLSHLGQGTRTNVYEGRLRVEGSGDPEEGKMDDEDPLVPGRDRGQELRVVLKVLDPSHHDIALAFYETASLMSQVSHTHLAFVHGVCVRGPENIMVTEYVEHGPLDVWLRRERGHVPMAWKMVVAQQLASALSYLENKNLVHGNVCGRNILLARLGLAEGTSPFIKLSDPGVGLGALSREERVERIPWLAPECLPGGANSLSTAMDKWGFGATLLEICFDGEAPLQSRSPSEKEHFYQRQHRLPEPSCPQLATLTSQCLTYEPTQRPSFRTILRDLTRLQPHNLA
Summary of the method: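 Kd values come from nonlinear least-squares fits of 11-point 3-fold dilutions (mostly 30,000 nM top, lowered when Kd fell below 0.5 nM). Test compound competed with bead-bound biotinylated ligand for qPCR-tagged TYK2 pseudokinase (JH2) domain, shaken 1 h at room temperature, with about 1% final DMSO.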

[2] = tested on: STAT1/3 through TYK2/JAK1; assay: IFNa induced STAT phosphorylation in HEK293 cells (SIE-bla reporter gene); format: cell-based; details: Homo sapiens, HEK293; HEK293T-sie-bla cells, IFNa at EC80, 4 hours; read-out: Inhibition of IFNa induced STAT phosphorylation HEK293 cells IC50
Summary of the method: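 Read-out was FRET from a β-lactamase reporter under a SIE promoter in HEK293T cells, with substrate added after a 4 h, 37°C co-incubation of compound and EC80 IFNa and left overnight in the dark. Compounds ran as 10-point 1/5 dilutions at 0.1% final DMSO; four-parameter log fit gave IC50.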

Row | Kd [1] [nM] | IC50 [2] [nM] | Compound
1 | < 0.2 | 10 to 100 | Cc1cc(Nc2cc(Nc3cccc(F)c3N(C)S(C)(=O)=O)ncn2)nc(C)n1 [Example 76, N-[2-[[6-[(2,6-dimethylpyrimidin-4-yl)amino]pyrimidin-4-yl]amino]-6-fluorophenyl]-N-methylmethanesulfonamide]
2 | < 0.2 | 10 to 100 | Cc1cc(Nc2cc(Nc3ccc(C(=O)N(C)C)cc3N(C)S(C)(=O)=O)ncn2)nc(C)n1 [Example 77, 4-[[6-[(2,6-dimethylpyrimidin-4-yl)amino]pyrimidin-4-yl]amino]-N,N-dimethyl-3-[methyl(methylsulfonyl)amino]benzamide]
3 | 1 to 10 | > 1000 | COc1cc(C(=O)N2CCCC2)ccc1Nc1cc(Nc2cc(C)nc(C)n2)ncn1 [Example 78, [4-[[6-[(2,6-dimethylpyrimidin-4-yl)amino]pyrimidin-4-yl]amino]-3-methoxy-phenyl]-pyrrolidin-1-yl-methanone]
4 | > 10 | > 1000 | COc1cc(-c2ncc(F)cn2)ccc1Nc1cc(Nc2cc(C)nc(C)n2)ncn1 [Example 81, N4-(2,6-dimethylpyrimidin-4-yl)-N6-[4-(5-fluoropyrimidin-2-yl)-2-methoxyphenyl]pyrimidine-4,6-diamine]
5 | 1 to 10 | > 1000 | COc1c(Nc2cc(Nc3cc(C)nc(C)n3)ncn2)ccc(-c2ncn(C)n2)c1C [Example 83, N6-(2,6-dimethylpyrimidin-4-yl)-N4-[2-methoxy-3-methyl-4-(1-methyl-1,2,4-triazol-3-yl)phenyl]pyrimidine-4,6-diamine]
6 | < 0.2 | 10 to 100 | COc1c(Nc2cc(Nc3cc(C)nc(C)n3)ncn2)ccc(-c2cnn(C)c2C)c1C [Example 84, N4-[4-(1,5-dimethylpyrazol-4-yl)-2-methoxy-3-methyl-phenyl]-N6-(2,6-dimethylpyrimidin-4-yl)pyrimidine-4,6-diamine]
7 | 1 to 10 | 10 to 100 | COc1cc(-c2ncn(C)n2)ccc1Nc1cc(Nc2cc(C)nc(C)n2)ncn1 [Example 85, N6-(2,6-dimethylpyrimidin-4-yl)-N4-[2-methoxy-4-(1-methyl-1,2,4-triazol-3-yl)phenyl]pyrimidine-4,6-diamine]
8 | 0.2 to 1 | > 1000 | Cc1cc(Nc2cc(Nc3ncc(-c4cc(C(F)(F)F)nn4C)cc3N(C)S(C)(=O)=O)ncn2)nc(C)n1 [Example 87, N-[2-[[6-[(2,6-dimethylpyrimidin-4-yl)amino]pyrimidin-4-yl]amino]-5-[2-methyl-5-(trifluoromethyl)pyrazol-3-yl]-3-pyridyl]-N-methyl-methanesulfonamide]
9 | < 0.2 | 10 to 100 | Cc1cc(Nc2cc(Nc3ncc(-c4c(C)nn(C)c4C)cc3N(C)S(C)(=O)=O)ncn2)nc(C)n1 [Example 88, N-[2-[[6-[(2,6-dimethylpyrimidin-4-yl)amino]pyrimidin-4-yl]amino]-5-(1,3,5-trimethylpyrazol-4-yl)-3-pyridyl]-N-methyl-methanesulfonamide]
10 | < 0.2 | 10 to 100 | Cc1cc(Nc2cc(Nc3ccc(-c4cn[nH]c4C)cc3N(C)S(C)(=O)=O)ncn2)nc(C)n1 [Example 89, N-[2-[[6-[(2,6-dimethylpyrimidin-4-yl)amino]pyrimidin-4-yl]amino]-5-(5-methyl-1H-pyrazol-4-yl)phenyl]-N-methyl-methanesulfonamide]
11 | 1 to 10 | > 1000 | COc1cc(-c2cn(C)cn2)ccc1Nc1cc(Nc2cc(C)nc(C)n2)ncn1 [Example 90, N4-(2,6-dimethylpyrimidin-4-yl)-N6-[2-methoxy-4-(1-methylimidazol-4-yl)phenyl]pyrimidine-4,6-diamine]
12 | 1 to 10 | 100 to 1000 | COc1cc(-c2nccn2C)ccc1Nc1cc(Nc2cc(C)nc(C)n2)ncn1 [Example 91, N4-(2,6-dimethylpyrimidin-4-yl)-N6-[2-methoxy-4-(1-methylimidazol-2-yl)phenyl]pyrimidine-4,6-diamine]
13 | < 0.2 | < 10 | Cc1cc(Nc2cc(Nc3ccc(C4=CCCCO4)cc3N(C)S(C)(=O)=O)ncn2)nc(C)n1 [Example 92, N-[5-(3,4-dihydro-2H-pyran-6-yl)-2-[[6-[(2,6-dimethylpyrimidin-4-yl)amino]pyrimidin-4-yl]amino]phenyl]-N-methylmethanesulfonamide]
14 | 1 to 10 | > 1000 | COc1cc(-c2noc(C)n2)ccc1Nc1cc(Nc2cc(C)nc(C)n2)ncn1 [Example 93, N6-(2,6-dimethylpyrimidin-4-yl)-N4-[2-methoxy-4-(5-methyl-1,2,4-oxadiazol-3-yl)phenyl]pyrimidine-4,6-diamine]
15 | < 0.2 | < 10 | Cc1cc(Nc2cc(Nc3ccc(C4=CCCOC4)cc3N(C)S(C)(=O)=O)ncn2)nc(C)n1 [Example 94, N-[5-(3,6-dihydro-2H-pyran-5-yl)-2-[[6-[(2,6-dimethylpyrimidin-4-yl)amino]pyrimidin-4-yl]amino]phenyl]-N-methyl-methanesulfonamide]
16 | < 0.2 | < 10 | Cc1cc(Nc2cc(Nc3ccc(C4=CCOCC4)cc3N(C)S(C)(=O)=O)ncn2)nc(C)n1 [Example 95, N-[5-(3,6-dihydro-2H-pyran-4-yl)-2-[[6-[(2,6-dimethylpyrimidin-4-yl)amino]pyrimidin-4-yl]amino]phenyl]-N-methyl-methanesulfonamide]
17 | 1 to 10 | 100 to 1000 | Cc1cc(Nc2cc(Nc3c(F)cc(-c4cnn(C)c4C)cc3S(C)(=O)=O)ncn2)nc(C)n1 [Example 96, N4-[4-(1,5-dimethylpyrazol-4-yl)-2-fluoro-6-methylsulfonyl-phenyl]-N6-(2,6-dimethylpyrimidin-4-yl)pyrimidine-4,6-diamine]
18 | < 0.2 | 10 to 100 | Cc1cc(Nc2cc(Nc3ccc(-c4nc(C)n(C)n4)cc3N(C)S(C)(=O)=O)ncn2)nc(C)n1 [Example 97, N-[2-[[6-[(2,6-dimethylpyrimidin-4-yl)amino]pyrimidin-4-yl]amino]-5-(1,5-dimethyl-1,2,4-triazol-3-yl)phenyl]-N-methyl-methanesulfonamide]
19 | 0.2 to 1 | 10 to 100 | Cc1cc(Nc2cc(Nc3ccc(-c4nc(C)nn4C)cc3N(C)S(C)(=O)=O)ncn2)nc(C)n1 [Example 99, N-[2-[[6-[(2,6-dimethylpyrimidin-4-yl)amino]pyrimidin-4-yl]amino]-5-(2,5-dimethyl-1,2,4-triazol-3-yl)phenyl]-N-methyl-methanesulfonamide]
20 | > 10 | > 1000 | Cc1cc(C)c(N(C)S(C)(=O)=O)c(Nc2cc(Nc3cc(C)ncn3)ncn2)c1 [Example 100, N-[2,4-dimethyl-6-[[6-[(6-methylpyrimidin-4-yl)amino]pyrimidin-4-yl]amino]phenyl]-N-methylmethanesulfonamide]
21 | < 0.2 | 10 to 100 | Cc1cc(Nc2cc(Nc3ccccc3N(C)S(C)(=O)=O)ncn2)ncc1F [Example 101, N-[2-[[6-[(5-fluoro-4-methyl-2-pyridyl)amino]pyrimidin-4-yl]amino]phenyl]-N-methyl-methanesulfonamide]
22 | 0.2 to 1 | 10 to 100 | CN(c1ccccc1Nc1cc(Nc2ccc(C#N)cn2)ncn1)S(C)(=O)=O [Example 102, N-[2-[[6-[(5-cyano-2-pyridyl)amino]pyrimidin-4-yl]amino]phenyl]-N-methyl-methanesulfonamide]
